Reference: patent US20060165654A1, “Peptides and recombinant proteins mimicking interferons” (priority 2002, published 2006)
Entries after “also recorded” stand apart in the source; their conditions may differ.

Legend:
[1] = system: human T-lymphoblastoid cell line MT4; details: cited from earlier work
[2] = system: virus of mouse encephalomiocarditis; test: antiviral activity: suppression of cytopathic action of test-virus in L-41 and VERO cell cultures; type: cell-based; details: L-41 and VERO cells
Description: FIG. 7 Antiviral properties of de novo proteins and interferons in cell cultures L41 (human mononuclear leucosis) and VERO (kidney of green simian). The activity of preparations was determined as a minimal concentration leading to a 50% delay of the virus of mouse encephalomiocarditis cytopathic action. The average values of three independent experiments are shown ± the standard deviations.
FIG. 8 Antiviral properties of de novo proteins in the cell cultures L-41 (human mononuclear leucosis) and VERO (kidney of green simian). […] The average values of three independent experiments are shown ± standard deviations.
The average values of three independent experiments are shown ± standard deviations.
(§1) Antiviral and cytotoxity properties of obtained proteins. Testing of antiviral activity of the proteins was carried out in vitro monitoring the ability of the preparation to suppress cytopathic action of the test-virus (Ershov F., 1996, Interferon system: norm and pathology, Moscow, Medicine). Two cell lines were used in experiments: cells of human mononuclear leucosis L41 and green simian kidney VERO.
as §1, with “Antiviral” for “Antiviral and cytotoxity”, “synthetic linear peptides.” for “obtained proteins.”, “synthetic linear peptides” for “proteins”, “L-41” for “L41”

In the case of “LKEKKYSP (human interferon alfa2) [reference compound]”, the “concentrations suppressing proliferation of MT4” value [1] is given as 10^−9-10^−8 M and the “antiviral activity (in words)” value [2] is given as “demonstration of antiviral activity”.

For LKDRHDF (human interferon alfa2), the “antiviral activity (in words)” value [2] was “demonstration of antiviral activity”.

With “LKEKKYSP-Ser-Ser-LKDRHDF (LKEKKYSPSSLKDRHDF; human interferon alfa2)” the “antiviral activity (in words)” value [2] was “demonstration of antiviral activity” and the “antiviral activity compared with human interferon-α2” value ([2]; minimal concentration giving 50% delay of cytopathic action) was “only one order of magnitude less; also recorded: practically completely reproduces antiviral properties of human interferon-α2”.
